Data set [1] relates to NCI-H157. As to the kind of experiment: Induction of apoptosis in human NCI-H157 cells at 10 uM incubated for 5 hrs in serum-free medium by annexin V/propidium iodide staining by flow cytometry. The data set is classed as functional, cell-based. For orientation: A flow cytometer gives signals particle by particle.
Data set [2] can be described thus: Induction of methylselenol release in phenol-red free RPMI 1640 medium containing 100 uM DTNB. Format: physicochemical.
Data set [3] in a line: Induction of methylselenol release in pH 8.0 phosphate buffer containing 100 mM Na2PO4, 1 mM EDTA and 100 uM DTNB. The data set is classed as physicochemical.
Data set [4] concerns NCI-H157. Kind of data set: Induction of apoptosis in human NCI-H157 cells assessed as apoptotic cell level at 10 uM incubated for 5 hrs in serum-free medium by annexin V/propidium iodide staining by flow cytometry. Format: functional.
The test system of data set [5] is NCI-H157. As to the kind of experiment: Induction of apoptosis in human NCI-H157 cells assessed as live cell level at 10 uM incubated for 5 hrs in serum-free medium by annexin V/propidium iodide staining by flow cytometry. The data set is classed as functional, cell-based.
The subject of data set [6] is NCI-H157. As to the kind of experiment: Induction of apoptosis in human NCI-H157 cells assessed as necrotic cell level at 10 uM incubated for 5 hrs in serum-free medium by annexin V/propidium iodide staining by flow cytometry. Format: functional.
Data set [7] deals with NCI-H157. As to the kind of experiment: Induction of apoptosis in human NCI-H157 cells assessed as damaged cell level at 10 uM incubated for 5 hrs in serum-free medium by annexin V/propidium iodide staining by flow cytometry. Format: functional.

Among the data in ChEMBL document CHEMBL2069232, “Novel structural insights for imidoselenocarbamates with antitumoral activity related to their ability to generate methylselenol” (Bioorg Med Chem, 2012) are Activity and t1/2 values, retold here.

Each structure is given as a SMILES string. Activity calls are given as the source filed them. No cut-off for these calls is given here. Numbered stars: 1 amine (or outer) side, 2 acyl side, 3 side chain; on linkers, the order of the positions; unused ones are H or OH. Bridge positions count the residues as written; N and C are the ends. Square brackets hold non-standard residues; d marks the D form. Peptide text beside a SMILES is read from it. I, II: the chains in the order shown. Actinocin(1to9) = Cc1c2oc3c(C)ccc(C(=O)[*:2])c3nc-2c(C(=O)[*:1])c(N)c1=O; NMeV = CN[C@H](C(=O)O)C(C)C; Sar = CNCC(=O)O

`C[Se]/C(=N/C(C)=O)NC(C)=O`: in the data set with NCI-H157 [1], the result was Active. Moreover, the t1/2 in data set [2] is 0.82 h; in data set [3] it was 9.2 h.
In the case of `C[Se]/C(=N\C(=O)c1ccc(C)cc1)NC(=O)c1ccc(C)cc1`, in the data set with NCI-H157 [1], the result was inactive.
Consider `Cc1c2oc3c(C)ccc(C(=O)N[C@@H]4C(=O)N[C@H](C(C)C)C(=O)N5CCC[C@H]5C(=O)N(C)CC(=O)N(C)[C@@H](C(C)C)C(=O)O[C@@H]4C)c3nc-2c(C(=O)N[C@@H]2C(=O)N[C@H](C(C)C)C(=O)N3CCC[C@H]3C(=O)N(C)CC(=O)N(C)[C@@H](C(C)C)C(=O)O[C@@H]2C)c(N)c1=O` [DACTINOMYCIN] (I: T[dV]P[Sar][NMeV] / II: T[dV]P[Sar][NMeV]; ester I:1-I:C, II:1-II:C; linker I:N-II:N via Actinocin(1to9)), for which the Activity in the data set with NCI-H157 [4] was 9%; in the data set on NCI-H157 [6], 3%; in the data set with NCI-H157 [7] it was 23%. In addition, in the data set with NCI-H157 [5], the outcome was Active.
As to `CS/C(=N/C(=O)c1cccnc1)NC(=O)c1cccnc1`, the t1/2 was 24 h in data set [2] and 1333 h in data set [3].
For the molecule `CS/C(=N/C(=O)c1cccnc1Cl)NC(=O)c1cccnc1Cl`, the t1/2 in data set [2] came to 31 h; in data set [3], 917 h.
Regarding `COc1ccc(C(=O)/N=C(\NC(=O)c2ccc(OC)cc2OC)[Se]C)c(OC)c1`, the result in the data set on NCI-H157 [1] was inactive.
For `C[Se]/C(=N/C(=O)c1cccnc1)NC(=O)c1cccnc1`, the Activity is reported as 11% with NCI-H157 [4], 5% in the data set on NCI-H157 [6] and 28% in the data set on NCI-H157 [7]. The result in the data set with NCI-H157 [1] and with NCI-H157 [5] was Active. The t1/2 in data set [2] was 2.9 h; in data set [3], 26 h.
For `C[Se]/C(=N\C(=O)c1ccccc1)NC(=O)c1ccccc1`, the outcome with NCI-H157 [1] was inactive.
`C[Se]/C(=N/C(=O)c1cccnc1Cl)NC(=O)c1cccnc1Cl`: the result with NCI-H157 [1] was Active. The t1/2 came to 4.7 h in data set [2] and 40 h in data set [3].
For the molecule `C[Se]/C(=N\C(=O)c1ccc(C(F)(F)F)cc1)NC(=O)c1ccc(C(F)(F)F)cc1`, the outcome in the data set on NCI-H157 [1] was inactive.
